Experimental data: US20180116975A1, “COMPOSITIONS AND COMBINATIONS FOR THE TREATMENT OF ANGIOGENESIS DISEASES AND DISORDERS” (BIOMAS LTD., priority 2015, published 2018)

System: patients with AMD (PED, subretinal fluid)
Experiment: Clinical study (compassionate treatment): oral AS101 in conjunction with intra vitreal anti VEGF injections
Format: in vivo, human
Text: Patients were orally administered with AS101/Formula I in conjunction with intraocular injections of intra vitreal anti VEGF. […] A special compassionate approval has been given by the local committee of ethics in Meir medical center, Kfar Saba, and the Ministry of Health in Israel to treat these two patients with orally taken AS101.
Patient underwent an additional intra-vitreal Lucentis injection and from this point examination continued every month with treatment in PRN mode. Until Jul. 26, 2012 the patient underwent 9 intra-vitreal Lucentis injections. On January 2013 treatment was switched to Aflibercept (Eylea) and the patient received 3 montly injection and an additional injection on Jun. 18, 2013.
The patient received an intravitreal triancinolon acetonid injection followed by the 3rd lucentis one week later. […] The patient received 2 additional Lucentis injections and on Nov. 27, 2012 treatment was switched to Eylea when it became available in Israel. The patient received 8 monthly Eylea injections, the last one on Jun. 18, 2013.
On Jul. 7, 2013, the patient started to receive 12 drops of AS101 every day orally. On Aug.
Except for one occasion of a 5 month interval between 2 injections, the patient received an injection every month. […] Four days after the last Lucentis injection, on 13 Aug. 2013 the patient started to take 12 drops of AS101 orally.

Aflibercept [Eylea, reference compound]
amount of the subretinal fluid over the peak of the PED and at the slope (Case 1, left eye, 8 monthly injections, before AS101): did not change

Cl[TeH]1(Cl)(Cl)OCCO1 [AS101]
OCT finding after discontinuation of AS101 (Case 1, 3 weeks after AS101 was discontinued): development of new subretinal fluid in both eyes | time without need for additional injections (Case 1, left eye, until discontinuation of AS101): 8 months | subretinal fluid at the base of the PED (OCT) (Case 1, left eye, 12 drops AS101 daily orally, one month after Lucentis with triamcinilon acetonide injections): decrease of the amount of the subretinal fluid | subretinal fluid at the slope of the PED (OCT) (Case 1, left eye, next 3 monthly OCT tests after cataract surgery, on AS101): absorbed for the first time since it appeared | time without need for intravitreal injections (Case 1, right eye, until discontinuation of AS101): 10 months | adverse events (Case 2, 12 drops AS101 orally): No adverse events were reported | last visual acuity (Case 2, left eye, Nov. 11, 2014, on AS101 (20/200 at diagnosis)): 20/50 | last visual acuity (Case 2, right eye, Nov. 11, 2014, on AS101): 20/30 | Angiogenesis inhibitor injections during treatment according to the invention (Patient #1, LE (left eye), in 9 months, oral AS101): LE: 1 injection in 9 | maximal time interval between injections (Patient #2, during AS 101 treatment with Lucentis): injections: 14 months | Angiogenesis inhibitor injections during treatment according to the invention (Patient #2, in 27 months, 12 drops AS101 orally, Lucentis PRN): 4 injections | Angiogenesis inhibitor injections during treatment according to the invention (Patient #2, in 27 months, 12 drops AS101 orally, Lucentis PRN, listed as AS 101): 4 injections in 27 | progression of drusens/dry AMD to Wet AMD (observation during the compassionate treatment): did not developed to Wet AMD | time intervals between Ranibizumab injections (patient suffering from AMD, otherwise injected every month, with AS-101): 9 months

B1: Ranibizumab (antibody, chains of the INN, looked up, V domains shown)
VH: EVQLVESGGGLVQPGGSLRLSCAASGYDFTHYGMNWVRQAPGKGLEWVGWINTYTGEPTYAADFKRRFTFSLDTSKSTAYLQMNSLRAEDTAVYYCAKYPYYYGTSHWYFDVWGQGTLVTVSS
VL: DIQLTQSPSSLSASVGDRVTITCSASQDISNYLNWYQQKPGKAPKVLIYFTSSLHSGVPSRFSGSGSGTDFTLTISSLQPEDFATYYCQQYSTVPWTFGQGTKVEIK
subretinal fluid (OCT) (Case 1, right eye, 3 intra-vitreal injections in one month intervals, before AS101): resolution of the subretinal fluid
